Data from paper PMC7580722, “Design of new disubstituted imidazo[1,2-b]pyridazine derivatives as selective Haspin inhibitors. Synthesis, binding mode and anticancer biological evaluation” (Journal of Enzyme Inhibition and Medicinal Chemistry, 2020).

Key:
[1] = tested on: HsCdk9/Cyclin T; experiment: CDK9 kinase assay; assay type: biochemical, human; details: SI = IC50 kinase X/IC50 Haspin
Procedure: (§1) Values are IC50 expressed in µM and calculated from dose–response curves (each point on the curves was performed in triplicate). Selectivity indexes (SI; in brackets) are calculated as follows: SI = IC50 kinase X/IC50 Haspin. ND: not determined. *IC50 values obtained using the ADP-Glo methodology (see Experimental section, Supplementary Material). […]
The reaction was carried out as described in general procedure A using 4 (0.150 g, 0.58 mmol, 1 equiv.), 2-aminopyrimidine-5-boronic acid (0.122 g, 0.88 mmol, 1.5 equiv.) and Cs2CO3 (0.575 g, 1.75 mmol, 3 equiv.). The crude mixture was purified by flash chromatography on silica gel (EtOAc) to afford 28 (0.115 g, 73 %) as a yellow […]
The reaction was carried out as described in general procedure A using 4 (0.100 g, 0.39 mmol, 1 equiv.), 1-naphthaleneboronic acid (0.083g, 0.47 mmol, 1.2 equiv.) and Cs2CO3 (0.381 g, 1.17 mmol, 3 equiv.). […]
Recombinant protein kinases were expressed and purified from E. coli (HsHaspin kinase domain aa470-798, HsCdk5/p25, RnDYRK1A kinase domain aa1-499, HsPIM1, MmCLK1) or baculovirus/Sf9 cells (HsCdk2/Cyclin A, HsCdk9/Cyclin T). […] The wet filter-bound radioactivity was determined in the presence of 20 µl scintillation fluid (GE healthcare) with a TopCount® Scintillation and Luminescence Counter (PerkinElmer). IC50 values were calculated from dose-response curves […]

[2] = tested on: Haspin activity (H3T3ph) in U-2 OS cells; experiment: In-cell Haspin activity, H3T3ph immunofluorescence; assay type: cell-based, human; details: 24 h
[3] = tested on: U-2 OS cells; experiment: Scratch wound cell migration assay (IncuCyte); assay type: cell-based, human; details: 0.6 µM, 0.5% FBS, normalised against DMSO control (100%)
[4] = tested on: HCT116; experiment: Cell viability, monolayer (2D), MTS assay; assay type: cell-based; details: Homo sapiens, HCT-116, 48 h
[5] = tested on: U-2 OS cells; experiment: Cell cycle analysis by flow cytometry (propidium iodide); details: 2.5 µM, 24 h, U-2 OS
Procedure: Figure 6. […] DNA content was measured by flow cytometry and representative profiles are shown. (B) quantification of the proportion of cells in each phase of the cell cycle from the experiment described in (A). Results are mean percentage (n = 3 independent experiments).
Cellular evaluation methods
All media were supplemented with 10% fetal calf serum (unless overwise specified) and 2 mM L-glutamine and cells were cultured
F68-pluronic acid. Cells were fixed for 2h in ice-cold ethanol, then washed twice in PBS containing 0.1% F68-pluronic acid, centrifuged at 200 g and resuspended in a PBS buffer containing 1% Triton, 100 µg/ml RNase A (Thermo Scientific) and 40 µg/ml propidium iodide (Life Technologies). DNA content was determined using a FACS Canto II (BD) and the data were analyzed using FCS Express Cytometry software (De Novo Software).
Twenty thousand events were collected in each run.

[6] = target: T1, HsHaspin (Homo sapiens, UniProt Q8TF76); experiment: Recombinant Haspin kinase assay ([γ-33P]ATP, 15 µM ATP; some values ADP-Glo); assay type: biochemical; details: recombinant HsHaspin, in vitro
T1 construct: aa470-798; made in house; host or cells: E. coli
T1 sequence (Q8TF76 470-798): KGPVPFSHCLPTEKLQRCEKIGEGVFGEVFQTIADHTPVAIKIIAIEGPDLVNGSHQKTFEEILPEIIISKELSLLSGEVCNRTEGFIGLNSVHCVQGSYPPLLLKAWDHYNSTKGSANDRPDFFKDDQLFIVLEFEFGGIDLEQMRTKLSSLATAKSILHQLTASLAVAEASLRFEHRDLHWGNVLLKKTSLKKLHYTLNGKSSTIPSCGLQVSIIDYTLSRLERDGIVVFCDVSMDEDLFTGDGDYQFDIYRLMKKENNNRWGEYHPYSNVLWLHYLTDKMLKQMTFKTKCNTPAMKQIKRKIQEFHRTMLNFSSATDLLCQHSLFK
Procedure: as §1
A, HsCdk9/Cyclin T). Native SscCK1δ /ε and SscGSK3α/β were purified from pig brain whereas HsPlk1, HsCdk1 and HsAurora B were purchased from ProQinase and SignalChem respectively. Kinase assays were performed in […]
mCi/ml; PerkinElmer) in a final volume of 30 µl as previously reported 51. After 30 min incubation at 30°C, the reaction mix was spotted onto GE healthcare P81 phosphocellulose paper using a FilterMate Harvester (PerkinElmer), and the filter was extensively washed with a 1% phosphoric acid solution. The wet filter-bound radioactivity was determined in the presence of 20 µl scintillation fluid (GE healthcare) with a TopCount® Scintillation and Luminescence Counter (PerkinElmer). IC50 values were calculated from dose-response curves […]
Kinase activities using the ADP-Glo methodology (ADP-Glo Kinase Assay; Promega) were assayed according to the assay described in Nguyen et al. 52 and Ibrahim et al. 53. […]

selectivity for CDK9 vs Haspin [1]: 28 fold | EC50 [4]: > 10000 nM | IC50 [6]: 6 nM
SMILES: c1cc2[nH]ncc2cc1-c1cnc2ccc(OC[C@@H]3CNCCO3)nn12 [Compound 21]
H3T3ph signal remaining in prometaphase cells (% of ctrl) ([2]; 0.5 µM): 2.4% | inhibition at 0.05 µM ([2]; Homo sapiens, U2OS, 0.05 µM, read-out: inhibition of cellular Haspin activity): > 80% | normalised wound closure after 24 h [3]: around 100% | cells in G2/M phase (% of cell total population) ([5]; DMSO control 12.8%): 21.4% | cells in S phase (% of cell total population) ([5]; DMSO control 51.9%): 32%
